These results are taken from patent US20160137639A1, “TRIAZOLE-ISOXAZOLE COMPOUND AND MEDICAL USE THEREOF” (JAPAN TOBACCO INC., priority 2012, published 2016).

Bounds are passed on as bounds.

For experiment [1], the target named is T1, human RORγ (Homo sapiens, UniProt P51449).
T1 construct: human, NM_005060.3 and from Ser253 to Lys518; expressed in transfected cells; host or cells: CHO cells (transient co-transfection with pG5-Luc reporter)
T1 sequence (P51449 253-518): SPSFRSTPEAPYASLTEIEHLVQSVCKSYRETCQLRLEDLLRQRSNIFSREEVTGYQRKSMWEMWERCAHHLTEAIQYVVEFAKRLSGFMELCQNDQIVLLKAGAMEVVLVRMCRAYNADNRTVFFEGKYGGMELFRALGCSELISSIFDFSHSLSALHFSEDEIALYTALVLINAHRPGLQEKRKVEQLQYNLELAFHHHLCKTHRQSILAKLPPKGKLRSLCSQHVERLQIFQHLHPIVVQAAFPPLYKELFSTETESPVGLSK
The experiment is described as follows: Luciferase reporter gene assay of inhibitory effect against RORγ transcriptional activity (GAL4-hRORγ plasmid in CHO cells). The following applies: read-out: LUC EC50 (μM) hRORg. Type of experiment: cell-based. (A reporter such as luciferase makes a cellular process visible.)

The target of experiment [2] is T2, mouse RORγ (Mus musculus, UniProt P51450).
T2 construct: mouse, NM_011281.2 and from Ile251 to Lys516; expressed in transfected cells; host or cells: CHO cells (transient co-transfection with pG5-Luc reporter)
T2 sequence (P51450 251-516): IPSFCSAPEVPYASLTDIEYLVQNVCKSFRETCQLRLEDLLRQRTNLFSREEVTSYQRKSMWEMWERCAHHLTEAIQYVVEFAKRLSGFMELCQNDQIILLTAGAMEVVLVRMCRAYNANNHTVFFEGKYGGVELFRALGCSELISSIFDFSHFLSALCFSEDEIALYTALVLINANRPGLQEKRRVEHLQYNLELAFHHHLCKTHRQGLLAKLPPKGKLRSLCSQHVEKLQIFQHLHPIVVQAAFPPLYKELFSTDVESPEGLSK
In words: Luciferase reporter gene assay of inhibitory effect against RORγ transcriptional activity (GAL4-mRORγ plasmid in CHO cells). It counts as cell-based. The settings on record: read-out: LUC EC50 (μM) mRORg. The essentials: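 Readout is intracellular luciferase after 2-day compound exposure (8 concentrations, 0.1% DMSO) in CHO cells expressing GAL4 fused to mouse RORγ LBD residues Ile251–Lys516 plus pG5-Luc reporter. EC50 fitted from %-of-control; points showing resazurin-detected cytotoxicity dropped.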

As for `CC(=O)N1C[C@H](C(=O)Nc2cccc(C)c2C)[C@@H](c2nnc(CCCC(C)(C)C)n2C2CC2)C1` (racemic) [Example F-324], the EC50 in experiment [1] and in experiment [2] was less than 3 µM in each case.

On to `CC(=O)N1C[C@H](C(=O)Nc2ccc(C)cc2C)[C@@H](c2nnc(CCOC(C)(C)C(F)(F)F)n2C2CC2)C1` (racemic) [Example F-325], for which the EC50 in experiment [1] and in experiment [2] was less than 3 µM throughout.

On to `CC(=O)N1C[C@H](C(=O)Nc2ccc(C)cc2C)[C@@H](c2nnc([C@H]3C[C@H](OC(C)C)C3)n2C2CC2)C1` (racemic) [Example F-329], for which the EC50 in experiment [1] and in experiment [2] was greater than 3 µM in each case.

For the compound `CC(=O)N1C[C@H](C(=O)Nc2ccc(C)cc2C)[C@@H](c2nnc([C@H]3C[C@@H](OC(C)C)C3)n2C2CC2)C1` (racemic) [Example F-330], the EC50 in experiment [1] and in experiment [2] was greater than 3 µM throughout.

In the case of `CC(=O)N1C[C@H](C(=O)Nc2cc(C)ccc2C)[C@@H](c2nnc(CCCC(C)(C)C)n2C2CC2)C1` (racemic) [Example F-331], the concentration for a half-maximal effect (EC50) in experiment [1] and in experiment [2] was less than 3 µM in each case.

Turning to `COc1cccc(NC(=O)[C@H]2CN(C(C)=O)C[C@@H]2c2nnc(CCCC(C)(C)C)n2C2CC2)c1C` (racemic) [Example F-332], the EC50 in experiment [1] and in experiment [2] was less than 3 µM in each case.

On to `CC(=O)N1C[C@H](C(=O)Nc2ccc(F)cc2C)[C@@H](c2nnc(CCCC(C)(C)C)n2C2CC2)C1` (racemic) [Example F-333], for which the EC50 in experiment [1] and in experiment [2] was less than 3 µM in each case.

For `CC(=O)N1C[C@H](C(=O)Nc2ccc(C)cc2C)[C@@H](c2nnc(C3CC3CC(C)C)n2C2CC2)C1` (mixture of isomers) [Example F-340], the EC50 in experiment [1] was greater than 3 µM; in experiment [2], less than 3 µM.

`CC(=O)N1C[C@H](C(=O)Nc2ccc(C)cc2C)[C@@H](c2nnc(C3CC3CC(C)C)n2C2CC2)C1` (mixture of isomers) [Example F-341]: the EC50 in experiment [1] and in experiment [2] was less than 3 µM in each case.

Regarding `CC(=O)N1C[C@H](C(=O)Nc2ccc(C)cc2C)[C@@H](c2nnc([C@H]3C[C@H](c4ccccc4)C3)n2C2CC2)C1` (racemic) [Example F-345], the EC50 in experiment [1] and in experiment [2] was less than 3 µM each time.

With `CC(=O)N1C[C@H](C(=O)Nc2ccc(C)cc2C)[C@@H](c2nnc([C@H]3C[C@@H](c4ccccc4)C3)n2C2CC2)C1` (racemic) [Example F-346], the EC50 in experiment [1] and in experiment [2] was less than 3 µM in each case.

With `CC(=O)N1C[C@H](C(=O)Nc2ccc(C)cc2C)[C@@H](c2nnc(CC3CC(C)(C)C3)n2C2CC2)C1` (racemic) [Example F-347], the EC50 in experiment [1] and in experiment [2] was less than 3 µM each time.

As to `CC(=O)N1C[C@H](C(=O)Nc2ccc(C)cc2C)[C@@H](c2nnc(-c3cc(C(C)C)on3)n2C2CC2)C1` (racemic) [Example F-350], the EC50 in experiment [1] and in experiment [2] was less than 3 µM each time.

In the case of `CCn1c(CCCC(C)(C)C)nnc1[C@H]1CN(C(C)=O)C[C@@H]1C(=O)Nc1ccc(C)cc1C` (racemic) [Example F-351], the EC50 in experiment [1] and in experiment [2] was less than 3 µM throughout.

Take `CC(=O)N1C[C@H](C(=O)Nc2ccc(C)cc2C)[C@@H](c2nnc(CCCC(C)(C)C)n2CC(F)(F)F)C1` (racemic) [Example F-356]: the EC50 in experiment [1] and in experiment [2] was less than 3 µM in each case.

`Cc1ccc(NC(=O)CC(CCO)c2nnc(C(F)(F)CCC(C)(C)C)n2C2CC2)c(C)c1` (racemic) [Example F-366]: the EC50 in experiment [1] and in experiment [2] was less than 3 µM throughout.

`Cc1ccc(NC(=O)CCc2nnc(C(O)CCC(C)(C)C)n2C2CC2)c(C)c1` (racemic) [Example F-367]: the EC50 in experiment [1] was greater than 3 µM; in experiment [2], less than 3 µM.

Take `CC(=O)N1C[C@H](C(=O)Nc2ccc(C)cc2C)[C@@H](c2nnc(-c3cnn(C(C)C)c3)n2C2CC2)C1` (racemic) [Example F-368]: the half-maximal effective concentration (EC50) in experiment [1] and in experiment [2] was greater than 3 µM throughout.

With `C=CCC(CC(=O)Nc1ccc(C)cc1C)c1nnc(CCCC(C)(C)C)n1CC(F)(F)F` (racemic) [Example F-373], the EC50 in experiment [1] and in experiment [2] was less than 3 µM throughout.

As to `C=CCC(CC(=O)Nc1ccc(C)cc1C)c1nnc(C(F)(F)CCC(C)(C)C)n1C1CC1` (racemic) [Example F-376], the 50% effective concentration (EC50) in experiment [1] and in experiment [2] was less than 3 µM throughout.

Consider `CC(=O)N1C[C@H](C(=O)Nc2ccc(C)cc2C)[C@@H](c2nnc([C@H]3C[C@@H](OC(C)(C)C)C3)n2C2CC2)C1` (racemic) [Example F-382], for which the EC50 in experiment [1] and in experiment [2] was less than 3 µM throughout.

For `Cc1ccc(NC(=O)[C@H]2CN(C)CC[C@@H]2c2nnc(CCCC(C)(C)C)n2C2CC2)c(C)c1` (racemic) [Example F-394], the EC50 in experiment [1] and in experiment [2] was less than 3 µM each time.

Turning to `Cc1ccc(NC(=O)[C@H]2CCN(C)C[C@@H]2c2nnc(CCCC(C)(C)C)n2C2CC2)c(C)c1` (racemic) [Example F-395], the concentration for a half-maximal effect (EC50) in experiment [1] and in experiment [2] was less than 3 µM throughout.

Consider `COCCC(CC(=O)Nc1ccc(C)cc1C)c1nnc(CCC2CCCCC2)n1C1CC1` (racemic) [Example F-396], for which the 50% effective concentration (EC50) in experiment [1] and in experiment [2] was less than 3 µM each time.

On to `Cc1ccc(NC(=O)[C@H]2CN(S(C)(=O)=O)C[C@@H]2c2nnc(CCCC(C)(C)C)n2C2CC2)c(C)c1` (racemic) [Example F-397], for which the concentration giving a half-maximal response (EC50) in experiment [1] and in experiment [2] was less than 3 µM in each case.

In the case of `Cc1ccc(NC(=O)[C@H]2CN(S(=O)(=O)C(F)(F)F)C[C@@H]2c2nnc(CCCC(C)(C)C)n2C2CC2)c(C)c1` (racemic) [Example F-398], the EC50 in experiment [1] and in experiment [2] was less than 3 µM each time.

On to `COC(=O)N1C[C@H](C(=O)Nc2ccc(C)cc2C)[C@@H](c2nnc(CCCC(C)(C)C)n2C2CC2)C1` (racemic) [Example F-399], for which the EC50 in experiment [1] and in experiment [2] was less than 3 µM each time.

Regarding `CCC(=O)N1C[C@H](C(=O)Nc2ccc(C)cc2C)[C@@H](c2nnc(CCCC(C)(C)C)n2C2CC2)C1` (racemic) [Example F-400], the EC50 in experiment [1] and in experiment [2] was less than 3 µM throughout.

Take `Cc1ccc(NC(=O)CC(CCCO)c2nnc(CCCC(C)(C)C)n2CC(F)(F)F)c(C)c1` (racemic) [Example F-401]: the EC50 in experiment [1] and in experiment [2] was less than 3 µM in each case.

As for `CC(=O)N1C[C@H](C(=O)Nc2ccc(C)cc2C)[C@@H](c2nnc(C3CN(C(=O)OC(C)(C)C)C3)n2C2CC2)C1` (racemic) [Example F-416], the EC50 in experiment [1] and in experiment [2] was greater than 3 µM in each case.

Take `CC(=O)N1C[C@H](C(=O)Nc2ccc(C)cc2C)[C@@H](c2nnc(C3CN(C(=O)CC(C)(C)C)C3)n2C2CC2)C1` (racemic) [Example F-417]: the EC50 in experiment [1] and in experiment [2] was greater than 3 µM throughout.

For `CC(=O)N1C[C@H](C(=O)Nc2ccc(C)cc2C)[C@@H](c2nnc(C3CN(S(=O)(=O)C(C)C)C3)n2C2CC2)C1` (racemic) [Example F-418], the EC50 in experiment [1] and in experiment [2] was greater than 3 µM each time.

In the case of `CC(=O)N1C[C@H](C(=O)Nc2ccc(C)cc2C)[C@@H](c2nnc(C3CN(C(=O)N(C)C(C)C)C3)n2C2CC2)C1` (racemic) [Example F-419], the EC50 in experiment [1] and in experiment [2] was greater than 3 µM in each case.

On to `Cc1ccc(NC(=O)[C@H]2C[C@H](O)C[C@@H]2c2nnc([C@H]3C[C@@H](CC(C)C)C3)n2C2CC2)c(C)c1` (racemic) [Example F-421], for which the EC50 in experiment [1] and in experiment [2] was less than 3 µM each time.

Take `Cc1ccc(NC(=O)CC(Cc2ccccn2)c2nnc([C@H]3C[C@@H](CC(C)C)C3)n2C2CC2)c(C)c1` (mixture of isomers) [Example F-422]: the EC50 in experiment [1] and in experiment [2] was less than 3 µM in each case.

For `Cc1ccc(NC(=O)[C@H]2C[C@@H](O)C[C@@H]2c2nnc([C@H]3C[C@@H](CC(C)C)C3)n2C2CC2)c(C)c1` (racemic) [Example F-431], the EC50 in experiment [1] and in experiment [2] was less than 3 µM throughout.

Regarding `CC(=O)N1CC[C@H](c2nnc(CCCC(C)(C)C)n2C2CC2)[C@@H](C(=O)Nc2ccc(C)cc2C)C1` (racemic) [Example F-435], the EC50 in experiment [1] and in experiment [2] was less than 3 µM throughout.

With `Cc1ccc(NC(=O)CC(Cc2ccccc2)c2nnc(CCCC(C)(C)C)n2C2CC2)c(C)c1` (racemic) [Example F-436], the EC50 in experiment [1] and in experiment [2] was less than 3 µM in each case.

Take `C#CCC(CC(=O)Nc1ccc(C)cc1C)c1nnc(CCCC(C)(C)C)n1C1CC1` (racemic) [Example F-437]: the EC50 in experiment [1] and in experiment [2] was less than 3 µM each time.

`Cc1ccc(NC(=O)CC(CC(C)C)c2nnc(CCCC(C)(C)C)n2C2CC2)c(C)c1` (racemic) [Example F-438]: the EC50 in experiment [1] and in experiment [2] was less than 3 µM throughout.

The term EC50 denotes the midpoint of the concentration-response curve.
